Read-outs that look alike come from different tables or passages of the source.
Experiments:
[1] = biological target: T1, Full length Human HDAC10 (Homo sapiens, UniProt Q969S8)
T1 sequence (Q969S8 1-669): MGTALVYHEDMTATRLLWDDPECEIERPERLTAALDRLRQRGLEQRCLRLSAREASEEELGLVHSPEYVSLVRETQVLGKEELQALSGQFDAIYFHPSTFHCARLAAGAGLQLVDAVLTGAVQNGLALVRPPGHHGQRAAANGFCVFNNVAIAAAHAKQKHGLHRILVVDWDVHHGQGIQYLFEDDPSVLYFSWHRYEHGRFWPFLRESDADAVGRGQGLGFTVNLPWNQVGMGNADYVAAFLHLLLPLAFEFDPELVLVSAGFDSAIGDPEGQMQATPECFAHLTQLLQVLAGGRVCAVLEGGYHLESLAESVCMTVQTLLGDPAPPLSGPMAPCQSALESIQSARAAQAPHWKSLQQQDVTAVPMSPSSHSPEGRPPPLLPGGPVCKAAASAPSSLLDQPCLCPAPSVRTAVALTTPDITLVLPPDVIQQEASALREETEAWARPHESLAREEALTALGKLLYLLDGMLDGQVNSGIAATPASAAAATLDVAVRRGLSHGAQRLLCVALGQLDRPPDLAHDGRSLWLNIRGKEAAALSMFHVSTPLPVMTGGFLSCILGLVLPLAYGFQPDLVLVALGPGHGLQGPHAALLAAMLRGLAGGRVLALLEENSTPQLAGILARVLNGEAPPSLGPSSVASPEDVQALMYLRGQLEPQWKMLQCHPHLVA

[2] = biological target: T2, Human HDAC7 aa 518-end (Homo sapiens, UniProt Q8WUI4)
T2 sequence (Q8WUI4 518-952 limits assumed): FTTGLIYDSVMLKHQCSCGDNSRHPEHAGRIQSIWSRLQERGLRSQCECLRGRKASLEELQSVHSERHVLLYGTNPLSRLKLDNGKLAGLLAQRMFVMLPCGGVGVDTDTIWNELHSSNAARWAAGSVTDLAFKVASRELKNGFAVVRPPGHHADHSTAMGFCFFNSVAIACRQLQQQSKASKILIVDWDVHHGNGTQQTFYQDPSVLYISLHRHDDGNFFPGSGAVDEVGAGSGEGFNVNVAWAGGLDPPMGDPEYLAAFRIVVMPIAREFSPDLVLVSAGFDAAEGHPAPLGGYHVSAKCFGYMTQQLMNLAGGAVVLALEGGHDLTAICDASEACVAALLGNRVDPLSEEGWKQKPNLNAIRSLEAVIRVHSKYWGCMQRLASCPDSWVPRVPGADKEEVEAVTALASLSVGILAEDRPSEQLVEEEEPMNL

[3] = biological target: T3, Full length Human HDAC8 (Homo sapiens, UniProt Q9BY41)
T3 sequence (Q9BY41 1-377): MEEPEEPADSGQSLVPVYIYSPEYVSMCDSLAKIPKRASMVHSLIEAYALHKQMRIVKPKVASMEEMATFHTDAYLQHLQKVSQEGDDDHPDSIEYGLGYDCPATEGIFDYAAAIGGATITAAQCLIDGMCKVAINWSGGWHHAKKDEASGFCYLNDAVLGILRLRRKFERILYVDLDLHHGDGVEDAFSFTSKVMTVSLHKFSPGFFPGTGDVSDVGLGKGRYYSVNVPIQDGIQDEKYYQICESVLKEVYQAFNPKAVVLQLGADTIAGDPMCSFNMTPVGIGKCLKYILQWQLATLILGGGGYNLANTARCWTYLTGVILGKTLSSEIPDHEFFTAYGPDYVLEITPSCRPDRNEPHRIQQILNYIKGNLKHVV

[4] = biological target: T4, Full length Human HDAC6 (Homo sapiens, UniProt Q9UBN7); conditions: for Selectivity (6 v 8) (fold): ratio of HDAC8 IC50/HDAC6 IC50
T4 sequence (Q9UBN7 1-1215): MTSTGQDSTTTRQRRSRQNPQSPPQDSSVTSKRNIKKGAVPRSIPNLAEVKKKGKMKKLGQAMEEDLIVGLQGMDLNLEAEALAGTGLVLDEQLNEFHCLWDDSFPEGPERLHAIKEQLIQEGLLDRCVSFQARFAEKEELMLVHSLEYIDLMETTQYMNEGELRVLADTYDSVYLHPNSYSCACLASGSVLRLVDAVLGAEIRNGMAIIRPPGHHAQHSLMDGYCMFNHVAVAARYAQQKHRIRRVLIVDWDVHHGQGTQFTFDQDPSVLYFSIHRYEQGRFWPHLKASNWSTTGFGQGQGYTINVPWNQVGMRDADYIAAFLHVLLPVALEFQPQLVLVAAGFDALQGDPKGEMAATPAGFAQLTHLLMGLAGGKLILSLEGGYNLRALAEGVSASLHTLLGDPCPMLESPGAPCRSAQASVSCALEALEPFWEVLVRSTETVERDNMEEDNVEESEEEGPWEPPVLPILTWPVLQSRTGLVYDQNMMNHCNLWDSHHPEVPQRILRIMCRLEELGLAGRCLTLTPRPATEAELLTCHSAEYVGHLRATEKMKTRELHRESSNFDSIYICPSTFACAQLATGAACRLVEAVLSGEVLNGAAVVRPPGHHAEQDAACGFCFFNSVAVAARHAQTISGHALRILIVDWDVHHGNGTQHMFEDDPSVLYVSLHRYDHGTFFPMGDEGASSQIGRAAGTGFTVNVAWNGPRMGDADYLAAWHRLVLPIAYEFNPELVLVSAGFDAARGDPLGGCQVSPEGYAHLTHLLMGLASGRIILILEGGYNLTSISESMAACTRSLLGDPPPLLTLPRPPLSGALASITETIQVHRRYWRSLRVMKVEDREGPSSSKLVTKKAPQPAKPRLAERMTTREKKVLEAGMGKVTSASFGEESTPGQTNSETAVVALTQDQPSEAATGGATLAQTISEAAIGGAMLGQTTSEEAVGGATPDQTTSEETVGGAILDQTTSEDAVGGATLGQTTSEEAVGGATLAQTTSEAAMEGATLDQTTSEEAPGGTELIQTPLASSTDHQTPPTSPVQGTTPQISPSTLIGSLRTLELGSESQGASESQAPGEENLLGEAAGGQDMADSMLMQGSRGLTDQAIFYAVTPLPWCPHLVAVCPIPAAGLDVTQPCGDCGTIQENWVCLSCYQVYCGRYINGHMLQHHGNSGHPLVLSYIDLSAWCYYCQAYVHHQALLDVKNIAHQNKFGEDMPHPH

[5] = read-out: In vitro enzymatic IC50, HDAC Paralog 8, Table 2
[6] = read-out: In vitro enzymatic IC50, HDAC Paralog 6, Table 2

SMILES	IC50 [1] [nM]	IC50 [2] [nM]	IC50 [3] [nM]	IC50 [4] [nM]	IC50 [3, 5] [nM]	Selectivity (6 v 8) (fold) ([4]; Table 1, number)	Selectivity (6 v 8) (fold) ([4]; Table 1, range class)	IC50 [4, 6] [nM]
C[C@H]1CC[C@H]2c3c(F)cc(C(=O)NO)cc3CCN12 (single isomer, unassigned) [compound 157]	10000 to 100000	100 to 1000	1000 to 10000	1 to 100				
O=C(NO)c1cc(F)c(CN2CCC3(CCCCC3)C2)cc1F [compound 67]	10000 to 100000	1000 to 10000	1000 to 10000	1 to 100	1000 to 10000	20	III (III: >10-100)	1 to 100
O=C(NO)c1ccc(CN2C3CCCC2CC3)c(F)c1 [compound 61]	> 100000	1000 to 10000	1000 to 10000	100 to 1000	1000 to 10000	9.6	II (II: >1-10)	100 to 1000
CC1(C)C[C@@H]2Cc3c(F)cc(C(=O)NO)cc3CN2C1 (single isomer, unassigned) [compound 127]	> 100000	1000 to 10000	1000 to 10000	1 to 100				
C[C@@H]1CC[C@H]2c3c(F)cc(C(=O)NO)cc3CCN12 (single isomer, unassigned) [compound 158]	> 100000	100 to 1000	1000 to 10000	1 to 100				
CC(C)(C)CN1CCc2cc(C(=O)NO)cc(F)c2C1 [compound 20]	10000 to 100000	> 100000	10000 to 100000	1 to 100	10000 to 100000			1 to 100
CN1CC2(CCCCC2)CC[C@@H]1Cc1cc(F)cc(C(=O)NO)c1 (single isomer, unassigned) [compound 170]	10000 to 100000	1000 to 10000	1000 to 10000	1 to 100	1000 to 10000	68	III (III: >10-100)	1 to 100
O=C(NO)c1ccc(CN2C3CCC2CC(=NO)C3)c(F)c1 [compound 54]	> 100000	1000 to 10000	100 to 1000	1 to 100	100 to 1000	38.9	III (III: >10-100)	1 to 100
O=C(NO)c1ccc(CN2C3CCCC2CCC3)c(F)c1 [compound 60]	> 100000	1000 to 10000	1000 to 10000	100 to 1000	1000 to 10000	5.8	II (II: >1-10)	100 to 1000
O=C(NO)c1cc(F)c2c(c1)CCN1CCCC[C@@H]21 (single isomer, unassigned) [compound 139]	10000 to 100000	1000 to 10000	1000 to 10000	1 to 100				
O=C(NO)c1ccc(CN2CCC3(C2)C2CC4CC(C2)CC3C4)c(F)c1 (stereo not shown) [compound 78]	> 100000	10000 to 100000	100 to 1000	1000 to 10000	100 to 1000	0.4	I (I: 0.1-1)	1000 to 10000
O=C(NO)c1cc(F)c2c(c1)CCN(CC1COC1)C2 [compound 27]	> 100000	1000 to 10000	10000 to 100000	1 to 100	10000 to 100000			1 to 100
O=C(NO)c1cc(F)c2c(c1)CCN(C1CC3(CCC3)C1)C2 [compound 112]	> 100000	10000 to 100000	> 100000	1 to 100	> 100000	>12414.6	V (V: >1000)	1 to 100
O=C(NO)c1cc(F)c2c(c1)CCN([C@@H]1CCC3(CCCCC3)C1)C2 (single isomer, unassigned) [compound 110]	10000 to 100000	10000 to 100000	1000 to 10000	1 to 100	1000 to 10000			
O=C(NO)c1cc(F)c2c(c1)CCN(C1COC1)C2 [compound 24]	> 100000	1000 to 10000	1000 to 10000	1 to 100	1000 to 10000			1 to 100
O=C(NO)c1ccc2c(c1)C[C@H]1COCC(=O)N1C2 (single isomer, unassigned) [compound 134]	10000 to 100000	10000 to 100000	1000 to 10000	1 to 100				
O=C(NO)c1cc(F)c2c(c1)C[C@@H]1CC3(CCCCC3)CN1C2 (single isomer, unassigned) [compound 136]	> 100000	1000 to 10000	1000 to 10000	1 to 100				
CC1(C)C[C@H]2Cc3c(F)cc(C(=O)NO)cc3CN2C1 (single isomer, unassigned) [compound 128]	> 100000	1000 to 10000	1000 to 10000	100 to 1000				
O=C(NO)c1cc(F)c2c(c1)CCN(CC1CCCCC1)C2 [compound 19]	10000 to 100000	10000 to 100000	1000 to 10000	1 to 100	1000 to 10000			1 to 100
O=C(NO)c1cc(F)c2c(c1)CC1CCCN1C2 (single isomer, unassigned) [compound 120]	> 100000	1000 to 10000	1000 to 10000	1 to 100	1000 to 10000			1 to 100
O=C(NO)c1ccc(CN2CCC3(CCCCC3)CC2)c(F)c1 [compound 74]	10000 to 100000	1000 to 10000	1000 to 10000	100 to 1000	1000 to 10000	24.9	III (III: >10-100)	100 to 1000

From patent US12528767B2, “HDAC6 inhibitors and uses thereof” (Eikonizo Therapeutics, Inc., priority 2019, dated 2026)
